Source: PMC9792171, “Design and synthesis of new thiazolidinone/uracil derivatives as antiproliferative agents targeting EGFR and/or BRAF^V600E” (Frontiers in Chemistry, 2022)

Experiments:
[1] = test system: Panc-1 (pancreas cancer cell line); test: Antiproliferative MTT assay, Panc-1; assay type: cell-based; settings: Homo sapiens; Panc-1, MTT; read-out: Antiproliferative activity IC50 ± SEM (nM) Panc-1
Protocol: (§1) Using the MTT assay ([Abdelrahman et al., 2017]; [El-Sherief et al., 2018]) and doxorubicin as the reference drug, 3a-f and 5a-l were tested for antiproliferative activity against four human cancer cell lines: Panc-1 (pancreas cancer cell line), MCF-7 (breast cancer cell line), HT-29 (colon cancer cell line), and A-549 (epithelial cancer cell line).
(§2) To explore the antiproliferative potential of compounds MTT assay was performed according to previously reported procedure (El-Sherief, H.A.M., et al., 2018; Abdelrahman, M. H., et al., 2017) using different cell lines to explore the antiproliferative potential of compounds propidium iodide fluorescence assay was performed using different cell lines. To calculate the total nuclear DNA, a fluorescent dye (propidium iodide, PI) is used which can attach to the DNA, thus offering a quick and precise technique. PI cannot pass through the cell membrane and its signal intensity can be considered as directly proportional to quantity of cellular DNA. Cells whose cell membranes are damaged or have changed permeability are counted as dead ones. The assay was performed by seeding the cells of different cell lines at a density of 3000-7500 cells/well (in 200µl medium) in culture plates followed by incubation for 24h at 37 °C in humidified 5% CO2/95% air atmospheric conditions. The medium was removed; the compounds were added to the plates at 10 µM concentrations (in 0.1% DMSO) in triplicates, followed by incubation for 48 h. DMSO (0.1%) was used as control. After incubation, medium was removed followed by the addition of PI (25 µl, 50µg/mL in water/medium) to each well of the plates. At -80 °C, the plates were allowed to freeze for 24 h, followed by thawing at 25 °C. A fluorometer (Polar-Star BMG Tech) was used to record the readings at excitation and emission wavelengths of 530 and 620 nm for each well. The percentage cytotoxicity of compounds was calculated using the following formula: […]

[2] = test system: MCF-7 (breast cancer cell line); test: Antiproliferative MTT assay, MCF-7; assay type: cell-based; settings: Homo sapiens, MCF7; MCF-7, MTT; read-out: Antiproliferative activity IC50 ± SEM (nM) MCF-7
Protocol: as §1, §2

[3] = test system: A-549 (epithelial cancer cell line); test: Antiproliferative MTT assay, A-549; assay type: cell-based; settings: Homo sapiens, A549; A-549, MTT; read-out: Antiproliferative activity IC50 ± SEM (nM) A-549
Protocol: as §1, §2

[4] = test system: HT-29 (colon cancer cell line); test: Antiproliferative MTT assay, HT-29; assay type: cell-based; settings: Homo sapiens; HT-29, MTT; read-out: Antiproliferative activity IC50 ± SEM (nM) HT-29
Protocol: as §1, §2

[5] = test system: four human cancer cell lines (A-549, MCF-7, Panc-1, HT-29); test: Antiproliferative MTT assay, average of four cancer cell lines (GI50); assay type: cell-based; settings: for IC50: Homo sapiens, average of A-549, MCF-7, Panc-1, HT-29
Protocol: as §1, with “line). […]” for “line).”
as §2

[6] = Cell viability assay (MTT), MCF-10A; assay type: cell-based; settings: human, MCF-10A mammary gland epithelial cells, MCF-10A cells, incubated 4 days
Protocol: To test the viability of new compounds, the human mammary gland epithelial (MCF-10A) cell line was used ([Youssif et al., 2019]; [Mahmoud et al., 2022]). MCF-10A cells were incubated with compounds 3a-f and 5a-l for 4 days before being tested for viability using the MTT assay.
MTT assay was carried out to study the effect of compounds on mammary epithelial cells (MCF-10A) (Youssif, B. G. M. et al., 2019; Mahmoud, M. A., et al., 2022). The medium in which cells were propagated contained Dulbecco's modified Eagle's medium (DMEM)/ Ham's F-12 medium (1:1) supplemented with epidermal growth factor (20 ng/mL), hydrocortisone (500 ng/mL), insulin (10 μg/mL), 2 mM glutamine and 10% foetal calf serum. After every 2-3 days, the cells were passaged using trypsin ethylenediamine tetra acetic acid (EDTA). The cells were seeded at a density of 10^4 cells mL^-1 in flat-bottomed culture plates containing 96 wells each. After 24 h, medium was removed from the plates and the compounds in (in 0.1% DMSO) were added (in 200 μL medium to yield a final concentration of 0.1% v/v) to the wells of plates. A single compound was designated with four wells followed by incubation of plates for 96h at 37°C. After incubation, medium was removed completely from the plates followed by addition of MTT (0.4 mg/mL in medium) to each well and subsequent incubation of plates for 3h. MTT (along with the medium) was removed and DMSO (150μL) was added to each well of the culture plates, followed by vortexing and subsequent measurement of absorbance (at 540 nm) using microplate reader. The data are shown as percentage inhibition of proliferation in comparison with controls containing 0.1% DMSO.

[7] = test system: lung cancer (A549) cell line; design: method as in Aziz et al., 2021; settings: ref Aziz et al., 2021; read-out: IC50 against lung cancer (A549) cell line; cited from earlier work
[8] = target: T1, EGFR (Homo sapiens, UniProt P00533); design: method as in Aziz et al., 2021; settings: ref Aziz et al., 2021; cited from earlier work
T1 construct: EGFR cytoplasmic domain (EGFR-CD, amino acids 645–1186); His6 (N); made in house; host or cells: Sf-9 insect cells (baculovirus; pBlueBacHis2B and pFASTBacHTc)
T1 sequence (P00533 669-1210): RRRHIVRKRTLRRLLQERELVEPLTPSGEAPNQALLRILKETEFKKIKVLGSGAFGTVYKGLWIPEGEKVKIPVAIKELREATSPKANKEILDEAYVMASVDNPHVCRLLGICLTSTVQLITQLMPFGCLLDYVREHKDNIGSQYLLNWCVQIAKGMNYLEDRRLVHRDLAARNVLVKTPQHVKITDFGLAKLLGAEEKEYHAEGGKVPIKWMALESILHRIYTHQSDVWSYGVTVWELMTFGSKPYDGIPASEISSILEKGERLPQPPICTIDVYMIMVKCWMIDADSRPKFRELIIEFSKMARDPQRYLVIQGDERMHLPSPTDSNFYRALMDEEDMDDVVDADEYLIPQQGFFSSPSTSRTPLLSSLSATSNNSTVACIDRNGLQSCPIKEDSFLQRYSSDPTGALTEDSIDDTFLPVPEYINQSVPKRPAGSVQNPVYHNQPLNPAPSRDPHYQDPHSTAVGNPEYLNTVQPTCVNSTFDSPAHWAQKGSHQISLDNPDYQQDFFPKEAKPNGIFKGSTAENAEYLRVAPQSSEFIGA

[9] = test system: human lung carcinoma cell lines; design: method as in Xiong et al., 2008; settings: panel of human lung carcinoma cell lines; ref Xiong et al., 2008; read-out: IC50, inhibition of cell proliferation; cited from earlier work

| Structure (SMILES) | IC50 [1] | melting point | IC50 [2] | IC50 [3] | IC50 [4] | IC50 [5] | fold less potent than compound 5j (GI50) ([5]; ratio of GI50 values) | viability at 4 days, 50 µM [6] | IC50 [7] | IC50 [8] | IC50 [9] |
| --- | --- | --- | --- | --- | --- | --- | --- | --- | --- | --- | --- |
| CCOC(=O)/C=C1\S/C(=N\c2c[nH]c(=O)[nH]c2=O)N(C)C1=O [Compound 5e, (Z)-Ethyl-2-((Z)-2-((2,4-dioxo-1,2,3,4-tetrahydropyrimidin-5-yl)imino)-3-methyl-4-oxo-thiazolidin-5-ylidene)acetate] | 7300 ± 700 nM | 302 to 304 °C | 6700 ± 700 nM | 7200 ± 600 nM | 7200 ± 700 nM | 7100 nM |  | 86% |  |  |  |
| O=C1N=C(Nn2c(-c3ccccc3)nc3ccccc3c2=O)S/C1=C/c1ccccc1 [Compound III] |  |  |  |  |  |  |  |  | 0.72 µM | 0.065 µM |  |
| COC(=O)/C=C1\S/C(=N\c2c[nH]c(=O)[nH]c2=O)N(C)C1=O [Compound 5k, (Z)-Methyl-2-((Z)-2-((2,4-dioxo-1,2,3,4-tetrahydropyrimidin-5-yl)imino)-3-methyl-4-oxothiazolidin-5-ylidene)acetate] | 5900 ± 500 nM | 300 to 302 °C | 5100 ± 500 nM | 5700 ± 600 nM | 6200 ± 600 nM | 5700 nM |  | 89% |  |  |  |
| COC(=O)c1ccccc1NC(=S)N(CCN1CCCCC1)Cc1cc2cc(C)ccc2[nH]c1=O [DC27] |  |  |  |  |  |  |  |  |  |  | 2.5 to 12.9 µM |
| CNC(=S)Nc1c[nH]c(=O)[nH]c1=O [Compound 3e, 1-(2,4-Dioxo-1,2,3,4-tetrahydropyrimidin-5-yl)-3-methylthiourea] | 9800 ± 800 nM | 332 to 334 °C | 9600 ± 800 nM | 9700 ± 800 nM | 10800 ± 900 nM | 10000 nM |  | 89% |  |  |  |
| C=CCN1C(=O)/C(=C/C(=O)OC)S/C1=N\c1c[nH]c(=O)[nH]c1=O [Compound 5l, (Z)-Methyl-2-((Z)-3-allyl-2-((2,4-dioxo-1,2,3,4-tetrahydropyrimidin-5-yl)imino)-4-oxothiazolidin-5-ylidene)acetate] | 6400 ± 600 nM | 314 to 316 °C | 6500 ± 600 nM | 6000 ± 600 nM | 6600 ± 600 nM | 6400 nM |  | 86% |  |  |  |
| C=CCN1C(=O)/C(=C/C(=O)OCC)S/C1=N\c1c[nH]c(=O)[nH]c1=O [Compound 5f, (Z)-Ethyl-2-((Z)-3-allyl-2-((2,4-dioxo-1,2,3,4-tetrahydropyrimidin-5-yl)imino)-4-oxo-thiazolidin-5-ylidene)acetate] | 8800 ± 700 nM | 310 to 312 °C | 7900 ± 700 nM | 8200 ± 700 nM | 8900 ± 700 nM | 8500 nM |  | 89% |  |  |  |
| O=c1[nH]cc(NC(=S)Nc2ccccc2)c(=O)[nH]1 [Compound 3a, 1-(2,4-Dioxo-1,2,3,4-tetrahydropyrimidin-5-yl)-3-phenylthiourea] | 8800 ± 800 nM | 340 to 342 °C | 8500 ± 800 nM | 8900 ± 800 nM | 9100 ± 800 nM | 8800 nM |  | 86% |  |  |  |
| CCOC(=O)/C=C1\S/C(=N\c2c[nH]c(=O)[nH]c2=O)N(Cc2ccccc2)C1=O [Compound 5d, (Z)-Ethyl-2-((Z)-3-benzyl-2-((2,4-dioxo-1,2,3,4-tetrahydropyrimidin-5-yl)imino)-4-oxo-thiazolidin-5-ylidene)acetate] | 5500 ± 500 nM |  | 4700 ± 400 nM | 4900 ± 500 nM | 5500 ± 500 nM | 5150 nM | approximately 5 fold | 86% |  |  |  |

Continued, in another order:

| IC50 [1] | melting point | IC50 [2] | IC50 [3] | IC50 [4] | IC50 [5] | fold less potent than compound 5j (GI50) ([5]; ratio of GI50 values) | Structure (SMILES) | viability at 4 days, 50 µM [6] | IC50 [7] | IC50 [8] | IC50 [9] |
| --- | --- | --- | --- | --- | --- | --- | --- | --- | --- | --- | --- |
| 3300 ± 300 nM | 320 to 322 °C | 3100 ± 300 nM | 3500 ± 300 nM | 3900 ± 300 nM | 3450 nM |  | CCOC(=O)/C=C1\S/C(=N\c2c[nH]c(=O)[nH]c2=O)N(c2ccccc2)C1=O [Compound 5a, (Z)-Ethyl-2-((Z)-2-((2,4-dioxo-1,2,3,4-tetrahydropyrimidin-5-yl)imino)-4-oxo-3-phenyl-thiazolidin-5-ylidene)acetate] | 91% |  |  |  |
| 3900 ± 300 nM | 348 to 350 °C (dec.) | 3700 ± 300 nM | 3800 ± 300 nM | 4100 ± 300 nM | 3900 nM |  | C=CCNC(=S)Nc1c[nH]c(=O)[nH]c1=O [Compound 3f, 1-Allyl-3-(2,4-dioxo-1,2,3,4-tetrahydropyrimidin-5-yl)thiourea] | 89% |  |  |  |
| 4100 ± 300 nM | 338 to 340 °C | 3600 ± 300 nM | 3700 ± 300 nM | 3900 ± 300 nM | 3800 nM |  | Cc1ccc(NC(=S)Nc2c[nH]c(=O)[nH]c2=O)cc1 [Compound 3b, 1-(2,4-Dioxo-1,2,3,4-tetrahydropyrimidin-5-yl)-3-(p-tolyl)thiourea] | 87% |  |  |  |
| 1400 ± 100 nM |  | 900 ± 100 nM | 1200 ± 100 nM | 1000 ± 100 nM | 1100 nM |  | COc1cccc2c1C(=O)c1c(O)c3c(c(O)c1C2=O)C[C@@](O)(C(=O)CO)C[C@@H]3O[C@H]1C[C@H](N)[C@H](O)[C@H](C)O1 [Doxorubicin, reference compound] |  |  |  |  |
| 2900 ± 200 nM | 302 to 304 °C | 2200 ± 200 nM | 2700 ± 200 nM | 2200 ± 200 nM | 2500 nM |  | COC(=O)/C=C1\S/C(=N\c2c[nH]c(=O)[nH]c2=O)N(c2ccccc2)C1=O [Compound 5g, (Z)-Methyl-2-((Z)-2-((2,4-dioxo-1,2,3,4-tetrahydropyrimidin-5-yl)imino)-4-oxo-3-phenyl-thiazolidin-5-ylidene)acetate] | 87% |  |  |  |
| 4300 ± 400 nM | 350 to 352 °C (dec.) | 3900 ± 400 nM | 4100 ± 400 nM | 4300 ± 400 nM | 4150 nM |  | O=c1[nH]cc(NC(=S)NCc2ccccc2)c(=O)[nH]1 [Compound 3d, 1-Benzyl-3-(2,4-dioxo-1,2,3,4-tetrahydropyrimidin-5-yl)thiourea] | 91% |  |  |  |
